# Assay results from patent US20240400579A1, “SPIROCYCLIC MODULATORS OF CHOLESTEROL BIOSYNTHESIS AND THEIR USE FOR PROMOTING REMYELINATION” (GENENTECH, INC., priority 2021, published 2024).
# Like-named read-outs stand apart in the source and are kept apart here.
# Tests used:
# [1] = biological target: human emopamil binding protein and human 7-dehydrocholesterol reductase co-expressing cell membrane (Homo sapiens (Human), UniProt Q15125); experiment: hEBP-DHCR7 radioligand filtration binding assay with [3H]-Compound 118A*; details: radioligand [3H]-Compound 118A*; HEK293 membrane co-expressing hEBP and DHCR7
# Sequence of human emopamil binding protein and human 7-dehydrocholesterol reductase co-expressing cell membrane (Q15125 whole entry): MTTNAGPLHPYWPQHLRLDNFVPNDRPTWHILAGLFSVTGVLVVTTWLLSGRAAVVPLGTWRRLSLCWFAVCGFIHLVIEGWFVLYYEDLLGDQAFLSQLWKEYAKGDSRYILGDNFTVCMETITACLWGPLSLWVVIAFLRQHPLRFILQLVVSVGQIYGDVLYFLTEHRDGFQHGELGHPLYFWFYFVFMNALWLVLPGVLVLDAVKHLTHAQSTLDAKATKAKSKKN
# Outline: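 HEK293 membranes transiently co-expressing hEBP and hDHCR7 (10 μg/well) were incubated with [3H]-Compound 118A* (added at 25 nM) and compounds (8 doses, final 0.06–5000 nM, n=2) for 3 h at 22 °C. Bound radioactivity was read after PEI-treated GF/B filtration. IC50 came from a Hill fit of % inhibition and was converted to Ki.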
# [2] = test system: EpiSC-derived OPCs; experiment: In vitro phenotypic screening of OPCs, MBP high-content imaging; format: cell-based, mouse; details: percentage of MBP+ oligodendrocytes, 3 days, 0.5 nM to 1000 nM, read-out: mOPC EC50
# Outline: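 Mouse EpiSC-derived OPCs seeded without growth factors and exposed 3 days at 37° C. to 8-point doses, 1000 nM to 0.5 nM final. Fixed cells stained for MBP and DAPI; high-content imaging gave percentage MBP+ oligodendrocytes, with EC50 from Hill-equation fit.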
# [3] = test system: zymostenol accumulation in EpiSC-derived OPCs (EBP); experiment: GC/MS-based sterol profiling, zymostenol accumulation; format: cell-based, mouse; details: 8 doses from 0.15 nM to 333 nM, read-out: mZymo GCMS EC50
# Outline: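 EpiSC-derived mouse OPCs plated at 100,000 cells/well in N2B27 without growth factors and treated 24 h. Sterols extracted, silylated with BSTFA and measured by GC/MS (EI, full scan), quantified against cholesterol-d7. Zymostenol normalized to levels after 24 h with 100 nM positive control reference.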
SMILES,Ki [1],"EC50 ([2]; Mus musculus, 72 h)","EC50 ([3]; Mus musculus, 24 h)",EC50 [2],EC50 ([3]; 24 hours)
"CC(C)(CN1CCC2(CC1)CS(=O)(=O)C2)Oc1cccc(C(F)(F)F)c1 [Compound 233, 7-(2-Methyl-2-(3-(trifluoromethyl)phenoxy)propyl)-2-thia-7-azaspiro[3.5]nonane 2,2-dioxide]",13.2 nM,5.7 nM,1.5 nM,,
"C[C@@H](Cc1ccc(C(F)(F)F)cn1)CN1CCC2(C1)CS(=O)(=O)C2 (single isomer, unassigned) [121A*]",115 nM,23 nM,6.1 nM,,
"O=S1(=O)CC2(CCN(CCCc3ccc(OC(F)(F)F)cc3)CC2)C1 [Compound 213, 7-(3-(4-(Trifluoromethoxy)phenyl)propyl)-2-thia-7-azaspiro[3.5]nonane 2,2-dioxide]",12 nM,4.7 nM,5 nM,,
"CC(C)(CN1CCC2(C1)CS(=O)(=O)C2)Oc1ccc(C(F)(F)F)cc1 [Compound 120, 6-(2-Methyl-2-(4-(trifluoromethyl)phenoxy)propyl)-2-thia-6-azaspiro[3.4]octane 2,2-dioxide]",17.7 nM,6.4 nM,4 nM,,
"O=S1(=O)CCC2(CC1)CN(CCOc1ccc(F)c(Cl)c1)C2 [Compound 219, 2-(2-(3-Chloro-4-fluorophenoxy)ethyl)-7-thia-2-azaspiro[3.5]nonane 7,7-dioxide]",22.1 nM,22.2 nM,6.9 nM,,
"O=S1(=O)CC2(CCN(CC[C@H](F)c3ccc(C(F)(F)F)nc3)CC2)C1 (single isomer, unassigned) [237A*]",89.6 nM,26.9 nM,30.1 nM,,
"CC(C)(CN1CCC2(CC1)CS(=O)(=O)C2)Oc1ccc(C(F)(F)F)nc1 [Example 205, 7-(2-Methyl-2-((6-(trifluoromethyl)pyridin-3-yl)oxy)propyl)-2-thia-7-azaspiro[3.5]nonane 2,2-dioxide]",19.4 nM,24 nM,5.6 nM,,
"CC(C)(CN1CCC2(CC1)CS(=O)(=O)C2)Oc1ccc(C(F)(F)F)c(F)c1 [Example 208, 7-(2-(3-Fluoro-4-(trifluoromethyl)phenoxy)-2-methylpropyl)-2-thia-7-azaspiro[3.5]nonane 2,2-dioxide]",12.8 nM,1.52 nM,0.69 nM,,
"C[C@@H](Cc1ccc(C(F)(F)F)nc1)CN1CCC2(CC1)CS(=O)(=O)C2 (single isomer, unassigned) [Example 203*]",51.9 nM,22 nM,6.4 nM,,
"O=S1(=O)CC2(CCN(CCOc3cnc([C@H]4CCC[C@@H](C(F)(F)F)C4)nc3)CC2)C1 (relative stereo) [Compound 248B, 7-(2-((2-((cis)-3-(trifluoromethyl)cyclohexyl)pyrimidin-5-yl)oxy)ethyl)-2-thia-7-azaspiro[3.5]nonane 2,2-dioxide]",31.6 nM,74.1 nM,25.6 nM,,
"CC(C)n1nc(C(F)(F)F)cc1C[C@H](C)CN1CCC2(C1)CS(=O)(=O)C2 (single isomer, unassigned) [235B*]",17.1 nM,3.89 nM,2.6 nM,,
"O=S1(=O)CC2(CCN(CCCc3ccc(F)c(F)c3)CC2)C1 [Compound 225, 7-(3-(3,4-Difluorophenyl)propyl)-2-thia-7-azaspiro[3.5]nonane 2,2-dioxide]",24.3 nM,23.5 nM,12.2 nM,,
CC(C)n1nc(C(F)(F)F)cc1OCCN1CCC2(CC1)CS(=O)(=O)C2 [Compound 239],41.9 nM,374 nM,39.8 nM,,
"C[C@H](Cc1ccc(C(F)(F)F)cc1)CN1CC2(CCS(=O)(=O)CC2)C1 (single isomer, unassigned) [232A*]",13.9 nM,5.6 nM,2 nM,,
"O=S1(=O)CC2(CCN(CC[C@@H](F)c3ccc(C(F)(F)F)nc3)CC2)C1 (single isomer, unassigned) [237B*]",117 nM,69.1 nM,17 nM,,
"CC(C)(Cc1ccc(C(F)(F)F)nc1)CN1CC[C@]2(CCS(=O)(=O)C2)C1 (single isomer, unassigned) [Compound 148A]",23.6 nM,31 nM,4.9 nM,,
"O=S1(=O)CC2(CCN(CCOc3cnc([C@H]4CCC[C@H](C(F)(F)F)C4)nc3)CC2)C1 (relative stereo) [Compound 248A, 7-(2-((2-((trans)-3-(Trifluoromethyl)cyclohexyl)pyrimidin-5-yl)oxy)ethyl)-2-thia-7-azaspiro[3.5]nonane 2,2-dioxide]",14.9 nM,94.8 nM,24.4 nM,,

# The next molecules have a lower Ki [1] than those just listed; values first:
Ki [1],"EC50 ([2]; Mus musculus, 72 h)","EC50 ([3]; Mus musculus, 24 h)",EC50 [2],EC50 ([3]; 24 hours),SMILES
10.6 nM,,,13 nM,4.6 nM,"C[C@H](CN1CCC2(CC1)CS(=O)(=O)C2)Oc1ccc(F)c(F)c1 (single isomer, unassigned) [221B*]"
10.5 nM,,,1.6 nM,0.49 nM,"C[C@@H](Cc1ccc([C@H]2CC[C@](O)(C(F)(F)F)CC2)c(Cl)c1)CN1CCC2(C1)CS(=O)(=O)C2 (stereo in doubt) [116A*, 6-((S)-3-(3-Chloro-4-((1s,4R)-4-hydroxy-4-(trifluoromethyl)cyclohexyl)phenyl)-2-methylpropyl)-2-thia-6-azaspiro[3.4]octane 2,2-dioxide, 6-((R)-3-(3-chloro-4-((1s,4S)-4-hydroxy-4-(trifluoromethyl)cyclohexyl)phenyl)-2-methylpropyl)-2-thia-6-azaspiro[3.4]octane 2,2-dioxide]"
10 nM,2.9 nM,2 nM,,,"O=S1(=O)CC2(CCN(CCOc3ccc(F)c(F)c3)CC2)C1 [Example 158, 7-(2-(3,4-Difluorophenoxy)ethyl)-2-thia-7-azaspiro[3.5]nonane 2,2-dioxide]"
9.8 nM,2.4 nM,2.1 nM,,,"C[C@H](CN1CCC2(CC1)CS(=O)(=O)C2)Oc1ccc(C(F)(F)F)cc1 (single isomer, unassigned) [227B*]"
8.31 nM,20 nM,2.5 nM,,,CC(Cc1ccc(C2CC2(C)C)cc1)CN1CCC2(C1)CS(=O)(=O)C2 (racemic) [Compound 102]
7.31 nM,0.9 nM,0.32 nM,,,"CC(C)(CN1CCC2(CC1)CS(=O)(=O)C2)Oc1ccc(Cl)c(F)c1 [Compound 231, 7-(2-(4-Chloro-3-fluorophenoxy)-2-methylpropyl)-2-thia-7-azaspiro[3.5]nonane 2,2-dioxide]"
7.27 nM,0.72 nM,0.52 nM,,,"C[C@@H](Cc1ccc(OC(F)(F)F)cc1)CN1CCC2(C1)CS(=O)(=O)C2 (single isomer, unassigned) [119A*]"
6.54 nM,0.55 nM,0.4 nM,,,"C[C@H](Cc1ccc(C2CCC2)cc1)CN1CCC2(C1)CS(=O)(=O)C2 (single isomer, unassigned) [109B*]"
5.14 nM,3 nM,2.1 nM,,,"C[C@@H](Cc1ccc(C2CCC2)cc1)CN1CCC2(C1)CS(=O)(=O)C2 (single isomer, unassigned) [109C*]"
1.96 nM,346 nM,75.5 nM,,,"O=S1(=O)CC2(CCN(CCOc3cnc(C4CCCCC4)c(Cl)c3)CC2)C1 [Compound 240, 7-[2-[(5-Chloro-6-cyclohexyl-3-pyridyl)oxy]ethyl]-26-thia-7-azaspiro[3.5]nonane 2,2-dioxide]"
